In patent publication US20090233966A1, “Analogues of the Azinomycins as Anti-Tumour Agents and as Prodrugs” (School of Pharmacy, University of London, priority 2005, published 2009):
Like-named read-outs stand apart in the source and are kept apart here.

What was measured:
[1] = system: HoeR (Hoechst415 resistant version of U2-OS); test: Cytotoxicity in HoeR cell line; type: cell-based, human; details: for cytotoxicity (in words): initial cytotoxicity studies; for IC50: read-out: IC50 (nM) of compound
Source text: (§1) Initial cytotoxicity studies were in the performed U2-OS and HoeR cell lines. The U2-OS is a human osteosarcoma cell line and HoeR is a DNA minor groove binder-resistant variant of this. Both are available from the American Type Culture Collection (ATCC), Dr. Raymon H. 10801 University Boulevard, Manassas, Va., 20110-2209, USA.

[2] = system: U2-OS human osteosarcoma cell line; test: Cytotoxicity in U2-OS cell line; type: cell-based; details: for cytotoxicity (in words): initial cytotoxicity studies; for IC50: read-out: IC50 (nM) of compound
Source text: as §1

NCl 60 cell panel = test: NCI 60 cell line panel antitumour activity (whole panel); type: cell-based, human; details: wide range of human tumour cell lines
Source text: Examples 6 and 7 make use of the NCl 60 cell panel. This is an in vitro cell line screening project providing direct support to the National Cancer Institute's USA Developmental Therapeutic Programme for anti cancer discovery. The methodolgy for the cell line's operation is described by Boyd et al in Drug Development Research 1995, 34, 91-109.

CYP3A4 CHO cells = test: Cytotoxicity on CHO cells transfected with CYP3A4; type: cell-based; details: FIG. 2(b)
[3] = system: wild type CHO cells (absent in CYP3A4); test: Cytotoxicity on wild type CHO cells; type: cell-based; details: FIG. 2(b)

| Compound | cytotoxicity (in words) [1] | IC50 [1] | cytotoxicity (in words) [2] | IC50 [2] | antitumour activity in the NCl 60 cell line panel (in words) (NCl 60 cell panel) | IC50 ([1]; Homo sapiens, U2OS) | IC50 ([2]; Homo sapiens, U2OS) | cytotoxicity (in words) (CYP3A4 CHO cells) | cytotoxicity (in words) [3] |
| --- | --- | --- | --- | --- | --- | --- | --- | --- | --- |
| COc1cc(C(=O)OC(C(N)=O)[C@]2(C)CO2)c2ccccc2c1 (stereo partly drawn) [(2R, 3R)-1] | good activity | 40 nM | good activity | 40 nM |  |  |  |  |  |
| COc1cc(C(=O)OC(C(N)=O)[C@]2(C)CO2)c2ccccc2c1 (stereo partly drawn) [(2R, 3S)-1] | good activity | 45 nM | good activity | 40 nM |  |  |  |  |  |
| COc1cc(C(=O)O[C@H](C(=O)NCCN2CCCC(Cl)C2)C2(C)CO2)c2cccc(C)c2c1 (some centres unmarked) |  |  |  |  | excellent anti-tumour activity |  |  |  |  |
| COc1cc(C(=O)OC(C(N)=O)[C@]2(C)CO2)c2ccccc2c1 (stereo partly drawn) [(2S, 3R)-1] | good activity | 121 nM | good activity | 120 nM |  |  |  |  |  |
| C=C(C)[C@@H](OC(=O)c1cc(OC)cc2c(C)cccc12)C(N)=O [(2R)-2] | not cytotoxic |  | not cytotoxic |  |  | > 10000 nM | > 10000 nM |  |  |
| COc1cc(C(=O)OC(C(N)=O)[C@]2(C)CO2)c2ccccc2c1 (stereo partly drawn) [(2S, 3S)-1] | good activity | 14 nM | good activity | 15 nM |  |  |  | high cytotoxicity | high cytotoxicity |
